Test results reported in patent US20150344540A1, “NOVEL GLP-1 RECEPTOR AGONISTS WITH CHOLESTEROL EFFLUX ACTIVITY” (NOVO NORDISK A/S, priority 2012, published 2015).
Like-named read-outs stand apart in the source and are kept apart here. Where a SMILES comes first, the peptide text is derived from it. Where no end group is shown, it is not given here. [ ]: non-standard residue; d: D form. Aib = CC(C)(N)C(=O)O

Columns and labels:
[1] = tested on: Mouse monocyte/macrophage cell line, RAW 264.7; assay: Cholesterol efflux assay (3H-cholesterol, macrophage cell line); assay type: cell-based; details: RAW 264.7, 4 hrs incubation, 0.1% human serum albumin
human GLP-1 receptor = human GLP-1 receptor (Homo sapiens, UniProt P43220); assay: Functional GLP-1 receptor assay, in vitro potency (CRE luciferase; whole cells); assay type: cell-based; details: BHK cells expressing human GLP-1 receptor
Sequence of human GLP-1 receptor (P43220 24-463): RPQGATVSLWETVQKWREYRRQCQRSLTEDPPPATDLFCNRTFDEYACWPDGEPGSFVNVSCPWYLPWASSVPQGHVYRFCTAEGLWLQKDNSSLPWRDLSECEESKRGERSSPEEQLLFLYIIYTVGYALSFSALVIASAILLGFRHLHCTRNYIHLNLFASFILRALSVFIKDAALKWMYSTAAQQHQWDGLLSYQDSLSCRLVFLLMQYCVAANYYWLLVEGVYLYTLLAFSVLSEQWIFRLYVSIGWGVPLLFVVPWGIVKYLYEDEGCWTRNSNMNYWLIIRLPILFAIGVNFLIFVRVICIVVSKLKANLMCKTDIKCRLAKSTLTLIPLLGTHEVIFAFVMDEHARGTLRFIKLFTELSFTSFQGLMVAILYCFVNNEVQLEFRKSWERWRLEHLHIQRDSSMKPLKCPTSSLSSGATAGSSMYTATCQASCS

[2] = 0% HSA, read-out: GLP1R CRE luc 0% HSA EC50 Mean Value
[3] = GLP1R CRE luc 1% HSA EC50 Mean Value, 1% HSA

Compound	4 h Cholesterol Efflux Emax ([1]; ABCA1-mediated efflux)	EC50 ([1]; read-out: 4 h Cholesterol Efflux EC50, ABCA1-mediated efflux (CPT-cAMP induced minus non-induced))	EC50 (human GLP-1 receptor; [2])	EC50 (human GLP-1 receptor; [3])
CC[C@H](C)[C@H](NC(=O)[C@H](Cc1ccccc1)NC(=O)[C@H](CC(C)C)NC(=O)[C@H](CCCNC(=N)N)NC(=O)[C@@H](NC(=O)[C@H](C)NC(=O)[C@H](CCC(=O)O)NC(=O)CNC(=O)[C@H](CCC(=O)O)NC(=O)[C@H](CCSC)NC(=O)[C@H](CCC(N)=O)NC(=O)[C@H](CCCCN)NC(=O)[C@H](CO)NC(=O)[C@H](CC(C)C)NC(=O)[C@H](CC(=O)O)NC(=O)[C@H](CO)NC(=O)[C@@H](NC(=O)[C@H](Cc1ccccc1)NC(=O)[C@@H](NC(=O)CNC(=O)[C@H](CCC(=O)O)NC(=O)C(C)(C)NC(=O)[C@@H](N)Cc1c[nH]cn1)[C@@H](C)O)[C@@H](C)O)C(C)C)C(=O)N[C@@H](CCC(=O)O)C(=O)N[C@@H](Cc1c[nH]c2ccccc12)C(=O)N[C@@H](CC(C)C)C(=O)N[C@@H](CCCCN)C(=O)N[C@@H](CC(N)=O)C(=O)N[C@@H](CCCCN)C(=O)NC(C)(C)C(=O)N[C@@H](CC(C)C)C(=O)N[C@@H](CCC(=O)O)C(=O)N[C@@H](Cc1ccccc1)C(=O)N[C@@H](CC(C)C)C(=O)N[C@@H](CCC(=O)O)C(=O)N[C@@H](CC(C)C)C(=O)N[C@@H](CC(C)C)C(N)=O [Compound 12, [Aib2,Gly16,Lys29,Aib30,Leu31,Glu32,Phe33,Leu34,Glu35,Leu36,Leu371-Exendin-4-(1-37)-peptide amide] (H-H[Aib]EGTFTSDLSKQMEGEAVRLFIEWLKNK[Aib]LEFLELL-NH2; N-terminus assumed)	86%			
HAQGTFTSDYSKYLDSKAAREFVQWLLEKVKEFL-NH2 [Compound 68]		270 nM		
CC[C@H](C)[C@H](NC(=O)[C@H](Cc1ccccc1)NC(=O)[C@H](CCC(=O)O)NC(=O)[C@H](CCCCN)NC(=O)[C@H](C)NC(=O)[C@H](CCCCN)NC(=O)[C@H](CCCCN)NC(=O)[C@H](CCC(=O)O)NC(=O)[C@H](CCC(=O)O)NC(=O)[C@H](CC(C)C)NC(=O)[C@H](Cc1ccc(O)cc1)NC(=O)[C@H](CCCCN)NC(=O)[C@H](CO)NC(=O)[C@H](Cc1ccc(O)cc1)NC(=O)[C@H](CC(=O)O)NC(=O)[C@H](CO)NC(=O)[C@@H](NC(=O)[C@H](Cc1ccccc1)NC(=O)[C@@H](NC(=O)CNC(=O)[C@H](CCC(N)=O)NC(=O)[C@H](CO)NC(=O)[C@@H](N)Cc1c[nH]cn1)[C@@H](C)O)[C@@H](C)O)C(=O)N[C@@H](C)C(=O)N[C@@H](Cc1c[nH]c2ccccc12)C(=O)N[C@@H](CC(C)C)C(=O)N[C@@H](CC(C)C)C(=O)N[C@@H](CCC(=O)O)C(=O)N[C@@H](CCCCN)C(=O)NC(C)(C)C(=O)N[C@@H](CCCCN)C(=O)N[C@@H](CCC(=O)O)C(=O)N[C@@H](Cc1ccccc1)C(=O)N[C@@H](CC(C)C)C(N)=O [Compound 58] (H-HSQGTFTSDYSKYLEEKKAKEFIAWLLEK[Aib]KEFL-NH2)			1.17 nM	0.588 nM
HAEGTFTSDVSSYLEGQAAKEFIAWLVEKVGEFL-NH2 [Compound 108]			0.059 nM	0.017 nM
CC[C@H](C)[C@H](NC(=O)[C@H](Cc1ccccc1)NC(=O)[C@H](CCC(=O)O)NC(=O)[C@H](CCCCN)NC(=O)[C@@H](NC(=O)[C@H](C)NC(=O)[C@H](CCC(=O)O)NC(=O)CNC(=O)[C@H](CCC(=O)O)NC(=O)[C@H](Cc1ccc(O)cc1)NC(=O)[C@H](Cc1ccc(O)cc1)NC(=O)[C@H](CO)NC(=O)[C@H](CO)NC(=O)[C@@H](NC(=O)[C@H](CC(=O)O)NC(=O)[C@H](Cc1c[nH]cn1)NC(=O)[C@@H](NC(=O)[C@H](Cc1ccccc1)NC(=O)[C@@H](NC(=O)CNC(=O)[C@H](CCC(=O)O)NC(=O)[C@H](C)NC(=O)[C@@H](N)Cc1c[nH]cn1)[C@@H](C)O)[C@@H](C)O)C(C)C)C(C)C)C(=O)N[C@@H](C)C(=O)N[C@@H](Cc1c[nH]c2ccccc12)C(=O)N[C@@H](CC(C)C)C(=O)N[C@H](C(=O)N[C@@H](CCC(=O)O)C(=O)N[C@@H](CCCCN)C(=O)NC(C)(C)C(=O)N[C@@H](CCCCN)C(=O)N[C@@H](CCC(=O)O)C(=O)N[C@@H](Cc1ccccc1)C(=O)N[C@@H](CC(C)C)C(N)=O)C(C)C [Compound 15, [His4,Tyr20,Glu23,Val25,Glu34,Lys35,Aib36,Lys37]-GLP-1-(7-37)-peptidyl-Glu-Phe-Leu amide] (H-HAEGTFTHDVSSYYEGEAVKEFIAWLVEK[Aib]KEFL-NH2; N-terminus assumed)				0.101 nM
HAEGTFTNDMTNYLEGEAVKEFIAWLVEKGKEFL-NH2 [Compound 27, [Asn14,Met16,Thr17,Asn18,Glu23,Val25,Glu34,Lys35,Gly36,Lys37]-GLP-1-(7-37)-peptidyl-Glu-Phe-Leu amide]				0.028 nM
CC[C@H](C)[C@H](NC(=O)[C@H](Cc1ccccc1)NC(=O)[C@H](CCC(=O)O)NC(=O)[C@H](CCCCN)NC(=O)[C@@H](NC(=O)[C@H](C)NC(=O)[C@H](CCC(=O)O)NC(=O)CNC(=O)[C@H](CCC(=O)O)NC(=O)[C@H](CC(C)C)NC(=O)[C@H](Cc1ccc(O)cc1)NC(=O)[C@H](CC(N)=O)NC(=O)[C@@H](NC(=O)[C@H](CCSC)NC(=O)[C@H](CC(=O)O)NC(=O)[C@H](CC(N)=O)NC(=O)[C@@H](NC(=O)[C@H](Cc1ccccc1)NC(=O)[C@@H](NC(=O)CNC(=O)[C@H](CCC(=O)O)NC(=O)[C@H](C)NC(=O)[C@@H](N)Cc1c[nH]cn1)[C@@H](C)O)[C@@H](C)O)[C@@H](C)O)C(C)C)C(=O)N[C@@H](C)C(=O)N[C@@H](Cc1c[nH]c2ccccc12)C(=O)N[C@@H](CC(C)C)C(=O)N[C@H](C(=O)N[C@@H](CCC(=O)O)C(=O)N[C@@H](CCCCN)C(=O)NC(C)(C)C(=O)N[C@@H](CCCCN)C(=O)N[C@@H](CCC(=O)O)C(=O)N[C@@H](Cc1ccccc1)C(=O)N[C@@H](CC(C)C)C(N)=O)C(C)C [Compound 44, [Asn14,Met16,Thr17,Asn18,Glu23,Val25,Glu34,Lys35,Aib36,Lys37]-GLP-1-(7-37)-peptidyl-Glu-Phe-Leu amide] (H-HAEGTFTNDMTNYLEGEAVKEFIAWLVEK[Aib]KEFL-NH2; N-terminus assumed)				0.077 nM
HAEGTFTSDVSSYLEGQAAKEFIAWLVEKVKEFL-NH2 [Compound 104, [Glu34,Lys35,Val36,Lys37]-GLP-1-(7-37)-peptidyl-Glu-Phe-Leu amide]			0.116 nM	0.023 nM
HAEGTFTSDVSSYLEGQAAKEFIAWLVEKVKEFY-NH2 [Compound 131, [Glu34,Lys35,Val36,Lys37]-GLP-1-(7-37)-peptidyl-Glu-Phe-Tyr amide]			0.037 nM	0.014 nM
CC[C@H](C)[C@H](NC(=O)[C@H](Cc1ccccc1)NC(=O)[C@H](CCC(=O)O)NC(=O)[C@H](CCCCN)NC(=O)[C@@H](NC(=O)[C@H](C)NC(=O)[C@H](CCC(=O)O)NC(=O)CNC(=O)[C@H](CCC(=O)O)NC(=O)[C@H](CC(C)C)NC(=O)[C@H](Cc1ccc(O)cc1)NC(=O)[C@H](CCC(=O)O)NC(=O)[C@@H](NC(=O)[C@@H](NC(=O)[C@H](CC(=O)O)NC(=O)[C@H](CC(N)=O)NC(=O)[C@@H](NC(=O)[C@H](Cc1ccc(O)cc1)NC(=O)[C@@H](NC(=O)CNC(=O)[C@H](CCC(=O)O)NC(=O)[C@H](C)NC(=O)[C@@H](N)Cc1c[nH]cn1)[C@@H](C)O)[C@@H](C)O)C(C)C)[C@@H](C)O)C(C)C)C(=O)N[C@@H](C)C(=O)N[C@@H](Cc1c[nH]c2ccccc12)C(=O)N[C@@H](CC(C)C)C(=O)N[C@H](C(=O)N[C@@H](CCC(=O)O)C(=O)N[C@@H](CCCCN)C(=O)NC(C)(C)C(=O)N[C@@H](CCCCN)C(=O)N[C@@H](CCC(=O)O)C(=O)N[C@@H](Cc1ccccc1)C(=O)N[C@@H](CC(C)C)C(N)=O)C(C)C [Compound 13, [Tyr12,Asn14,Thr17,Glu18,Glu23,Val25,Glu34,Lys35,Aib36,Lys37]-GLP-1-(7-37)-peptidyl-Glu-Phe-Leu amide] (H-HAEGTYTNDVTEYLEGEAVKEFIAWLVEK[Aib]KEFL-NH2; N-terminus assumed)				0.104 nM
HAEGTFTSDVSSYLEEEAVKEFIAWLVEKVKEF-NH2 [Compound 132, [Glu22,Glu23,Val25,Glu34,Lys35,Val36,Lys37]-GLP-1-(7-37)-peptidyl-Glu-Phe amide]			0.02 nM	0.01 nM
HAEGTFTSDVSSYLEGQAAKEFIAWLVEKVKEF-NH2 [Compound 122, [Glu34,Lys35,Val36,Lys37]-GLP-1-(7-37)-peptidyl-Glu-Phe amide]			0.016 nM	0.005 nM
HAEGTFTSDVSSYLEGQAAKEFIAWLVEKVHEFL-NH2 [Compound 141]				0.03 nM
HAEGTFTSDVSSYLEEEAVKEFIAWLVEKVKEFL-NH2 [Compound 135, [Glu22,Glu23,Val25,Glu34,Lys35,Val36,Lys37]-GLP-1-(7-37)-peptidyl-Glu-Phe-Leu amide]				0.114 nM
CC[C@H](C)[C@H](NC(=O)[C@H](Cc1ccccc1)NC(=O)[C@H](CCC(=O)O)NC(=O)[C@H](CCCCN)NC(=O)[C@H](C)NC(=O)[C@H](C)NC(=O)[C@H](CCCCN)NC(=O)[C@H](CCC(=O)O)NC(=O)[C@H](CCC(=O)O)NC(=O)[C@H](CC(C)C)NC(=O)[C@H](Cc1ccc(O)cc1)NC(=O)[C@H](CCCCN)NC(=O)[C@H](CO)NC(=O)[C@H](Cc1ccc(O)cc1)NC(=O)[C@H](CC(=O)O)NC(=O)[C@H](CO)NC(=O)[C@@H](NC(=O)[C@H](Cc1ccccc1)NC(=O)[C@@H](NC(=O)CNC(=O)[C@H](CCC(N)=O)NC(=O)[C@H](CO)NC(=O)[C@@H](N)Cc1c[nH]cn1)[C@@H](C)O)[C@@H](C)O)C(=O)N[C@@H](C)C(=O)N[C@@H](Cc1c[nH]c2ccccc12)C(=O)N[C@@H](CC(C)C)C(=O)N[C@@H](CC(C)C)C(=O)N[C@@H](CCC(=O)O)C(=O)N[C@@H](CCCCN)C(=O)NC(C)(C)C(=O)N[C@@H](CCCCN)C(=O)N[C@@H](CCC(=O)O)C(=O)N[C@@H](Cc1ccccc1)C(=O)N[C@@H](CC(C)C)C(N)=O [Compound 57] (H-HSQGTFTSDYSKYLEEKAAKEFIAWLLEK[Aib]KEFL-NH2)			0.086 nM	0.044 nM
